Measurements reported in patent US11000529B2, “Human papilloma virus replication inhibitors” (Icosagen Cell Factory OÜ, priority 2015, dated 2021).
“Also recorded” adds a separate entry of the source.

How the values were obtained:
HPV18 [1] = assay: HPV18 initial amplification replication assay in U2OS cells (Southern Blot); assay type: cell-based; conditions: for IC50: 120 h, read-out: IC50 of HPV18 initial amplification; for inhibition of HPV18 initial amplification: HPV18 wt minicircle, 5 days, Southern Blot, relative to DMSO
Description: FIG. 2 Effect of the identified five compounds on HPV18 initial amplification. A: U2OS cells were transfected with HPV18 wt minicircle and grown in the presence of the compounds with indicated concentrations for 5 days. Genomic DNA was extracted, linearized, and digested with DpnI. HPV genome replication signals were detected using Southern Blot analyses and quantified with phosphoimager and expressed relative to vehicle control (DMSO). Approximate IC50 values are shown for each compound. Error-bars represent standard deviation from at least three independent experiment. B: U2OS cells were transfected with the expression vectors of HPV18 E1 and E2 proteins together with HPV18 URR (origin) minicircle plasmid. The cells were grown in the presence of the compounds with indicated concentrations for 24 or 48 hours. Genomic DNA was extracted, linearized and digested with DpnI. HPV URR replication signals were detected by Southern Blot analyses. DMSO serves as vehicle control and M 18URR serves as size marker.
(§1) Replication assay. The U2OS or U2OS-EBNA1 cells were transfected with 2 ug of HPV18 minicircle genome and lug of oriP plasmid (only in case of U2OS-EBNA1 cells). All the compounds were added to the media immediately after the transfection and media was changed on the third day. Replication signals were detected with Southern Blot method. Briefly, genomic DNA was extracted 3 and 4 days after the transfection with sh_RNAs or with the use of ABT-888 and 5 days after for analyses of the effects of HPV inhibitors w/wo CPT. DNA was digested with BglI and DpnI for analyses of HPV18 replication and with BstXI, ScaI and DpnI for analyses of HPV18 and oriP replication simultaneously. 3 ug of DNA was resolved in agarose gel, transferred to a nylon membrane (Membrane Solutions LLC) and hybridized with specific radioactively labeled probes. Signals were detected and quantified with Typhoon Trio+ phosphoimager (GE Healthcare) and exposed on an X-ray film (AGFA).
for compounds inhibiting initial amplification of HPV18 genome in U2OS cells. HT-screening was conducted with all the compounds in this library in 5 uM and 1 uM concentrations and it gave us 80 hits (approximately 5% of analyzed compounds). After validation of the hits on HPV18 wt genome, we found five compounds inhibiting initial amplification of HPV18 in U2OS cells (FIG. 1). To further characterize the compounds, we performed replication assay described in Example 1.

HPV18 [2] = assay: HPV18 replication in U2OS-EBNA1 cells, compounds alone or with CPT; assay type: cell-based; conditions: 5 days; for synergistic effect together with CPT on HPV18 replication: U2OS-EBNA1, with 2 nM CPT
Protocol: FIG. 5 Synergistic effect between Camptothecin (CPT) and the identified five compounds. U2OS-EBNA1 cells were transfected with HPV18 wt and oriP plasmids and grown in the presence of indicated concentrations of the compounds alone or together with 2 nM CPT for 5 days. Genomic DNA was extracted, linearized and digested with DpnI. Both HPV18 and oriP replication signals were detected with Southern Blot and quantified by phosphoimager. […] Error-bars represent standard deviations from at least three independent experiments.
as §1
Synergistic effect of Campthotecin (CPT) and HPV18 replication inhibitors. CPT is a Topoisomerase I inhibitor that stabilizes entrapped Top1cc complexes to DNA. Since Tdp1 is responsible for cleaving entrapped Top1cc complexes from DNA, synergistic effect between CPT and Tdp1 inhibitors occurs. In the experiments shown in FIG. 5 we used U2OS cells constitutively expressing Epstein Barr virus (EBV) EBNA1 protein—U2OS-EBNA1. These cells allow to monitor HPV and EBNA1 supported oriP plasmid replication simultaneously. […] U2OS-EBNA1 cells were cotransfected with HPV18 genome and oriP plasmid and the cells were grown in the presence of various concentrations of the identified HPV inhibitors alone or together with 2 nM of CPT for 5 days, DMSO was used as vehicle control.

HPV18 [3] = assay: Vegetative amplification of HPV18 in U2OS #1.13 cells, confluent; assay type: cell-based; conditions: U2OS #1.13, confluent, compounds added on 5th day for additional 7 days
Protocol: (§2) FIG. 3 Effect of compounds on stable maintenance and vegetative amplification of HPV18. A: U2OS #1.13 cells were grown in subconfluent conditions in the presence of the identified five compounds for 7 days. Genomic DNA was extracted, linearized and HPV replication signal was detected by Southern Blot and B: quantified by phosphoimager. C: U2OS #1.13 were seeded and grown for 5 days without splitting. On the 5th day indicated concentrations of compounds were added to the media and the cells were grown for additional 7 days without splitting. On the 12th day genomic DNA was extracted, linearized and HPV replication signal was detected by Southern Blot and D: quantified by phosphoimager. Error-bars represent standard deviations from at least two independent experiments.
If #1.13 is grown in confluent conditions for at least 5 days, vegetative amplification of HPV genome is turned on. We seeded equal amounts of cells onto plates and grew them for 5 days without splitting. On the 5th day various concentrations of compound were added and the cells were grown for additional 7 days (media was changed every two days throughout the experiment). HPV replication signal was detected by Southern Blot analyses and quantified with phosphoimager.

HPV18 [4] = assay: Stable maintenance of HPV18 in U2OS #1.13 cells, subconfluent; assay type: cell-based; conditions: U2OS #1.13, subconfluent, 7 days; for HPV18 replication signal lost: compared to DMSO control
Protocol: as §2
Our U2OScell-based system is suitable for studying all three replication stages of various HPV subtypes. Stable maintenance phase could be monitored by maintaining HPV-positive cells in subconfluent conditions. We used HPV18 positive monoclonal U2OS cell-line #1.13 with viral copy number ˜2000. We grew the #1.13 cells in the presence of various concentration of compounds in subconfluent conditions (cells were split every three days) for 7 days. HPV18 replication signal was detected by Southern blot analyses and quantified with phosphoimager. About 50% of the signal was lost in case of compound 82269 compared to the DMSO control (FIG. 3, panel A, compare lanes 4-6 with lane 15 and panel B).

Tdp = Tdp (Homo sapiens, UniProt Q9NUW8); conditions: known from the literature; cited from earlier work
Sequence of Tdp (Q9NUW8 whole entry): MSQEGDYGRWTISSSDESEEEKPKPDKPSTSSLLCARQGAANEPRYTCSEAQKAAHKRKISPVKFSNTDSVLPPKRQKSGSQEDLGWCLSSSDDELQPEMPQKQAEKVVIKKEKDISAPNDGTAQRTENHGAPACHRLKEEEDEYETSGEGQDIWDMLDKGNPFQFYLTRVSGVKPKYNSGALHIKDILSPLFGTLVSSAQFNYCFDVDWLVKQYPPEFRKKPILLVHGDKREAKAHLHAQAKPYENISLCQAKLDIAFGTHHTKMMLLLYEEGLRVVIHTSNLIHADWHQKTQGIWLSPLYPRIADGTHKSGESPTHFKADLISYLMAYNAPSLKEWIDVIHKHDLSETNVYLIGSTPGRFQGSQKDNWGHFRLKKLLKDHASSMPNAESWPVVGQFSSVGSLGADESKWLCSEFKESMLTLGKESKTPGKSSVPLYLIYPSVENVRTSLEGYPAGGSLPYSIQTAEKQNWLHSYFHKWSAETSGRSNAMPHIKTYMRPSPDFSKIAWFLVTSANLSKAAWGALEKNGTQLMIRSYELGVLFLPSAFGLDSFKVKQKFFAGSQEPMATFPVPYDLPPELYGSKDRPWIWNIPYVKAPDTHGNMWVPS

Row | SMILES | HPV18 replication in presence of PARP1 inhibitor (HPV18 [1]; 3 and 4 days, various concentrations, vs DMSO) | HPV18 initial amplification, CPT alone (HPV18 [2]; U2OS-EBNA1, 2 nM) | effect on vegetative amplification of HPV18 (HPV18 [3]) | effect on stable maintenance of HPV18 (HPV18 [4]) | HPV18 replication signal lost (HPV18 [4]) | IC50 (HPV18 [1]) | inhibition of HPV18 initial amplification (HPV18 [1]) | synergistic effect together with CPT on HPV18 replication (HPV18 [2]) | Tdp inhibition (Tdp)
1 | C[C@]1(c2nc3c(C(N)=O)cccc3[nH]2)CCCN1 [ABT-888, veliparib, reference compound] | HPV18 replication is decreased | – | – | – | – | – | – | – | –
2 | CC[C@@]1(O)C(=O)OCc2c1cc1n(c2=O)Cc2cc3ccccc3nc2-1 [CPT, Camptothecin, reference compound] | – | did not inhibit | – | – | – | – | – | – | –
3 | CSc1ncc2[nH]c(C(O)c3ccccc3)nc2n1 (centres unmarked) [NSC82269] | – | – | clear concentration-dependent inhibition; also recorded: clearly inhibit | clearly inhibit | About 50% | 2.5 to 60 µM | concentration-dependent inhibition | no synergistic effect; also recorded: does not | –
4 | Cc1cc(O)cc2c1[C@H]1CC[C@]3(C)C(=O)CC[C@H]3[C@H]1C=C2 [NSC 9782] | – | – | did not have any effect; also recorded: does not inhibit any of the later replication stages | no significant reduction in signal; also recorded: does not inhibit any of the later replication stages | – | 2.5 to 60 µM | concentration-dependent inhibition | clear concentration dependent synergistic effect; also recorded: clear synergistic inhibition | –
5 | C[C@]12CC[C@H]3[C@H](CCC4=CC(=O)CC[C@@]43C)[C@@H]1CC[C@@H]2C(=O)COS(=O)(=O)c1ccc(Br)cc1 [NSC 88915] | – | – | did not have any effect | only inhibits stable maintenance phase | about 70% | 2.5 to 60 µM | concentration-dependent inhibition | clear concentration dependent synergistic effect; also recorded: clear synergistic inhibition | known to inhibit Tdp
6 | CC(=O)OC1CCC2(C)C(CCC3C2CC(=O)C2(C)C3CC(N3CC3)C2C(C)=O)C1 (centres unmarked) [NSC 109128] | – | – | almost completely abolished amplification; also recorded: clearly inhibit | clearly inhibit | about 70% | 2.5 to 60 µM | concentration-dependent inhibition | clear concentration dependent synergistic effect; also recorded: clear synergistic inhibition | –
